Literature values, collected in US20100137333A1, “ANTIFUNGAL COMPOSITION AND METHODS FOR USING” (priority 2006, published 2010).

Conditions: in vivo

Substance	dermal toxicity
poly(vinylpyrrolidone/1-eicosene) [PVPE]	no demonstrable dermal toxicity
Poly(vinylpyrrolidone/1-hexadecene) [PVPH]	no demonstrable dermal toxicity
